Marks after values point to notes of the source that are not given here.
Tests used:
MRSA USF657 = assay: Kirby-Bauer agar disk diffusion; settings: 20 μg on 6 mm disk, 24 h at 37° C., triplicate
MRSA USF656 = assay: Kirby-Bauer agar disk diffusion; settings: 20 μg on 6 mm disk, 24 h at 37° C., triplicate
MRSA USF658 = assay: Kirby-Bauer agar disk diffusion; settings: 20 μg on 6 mm disk, 24 h at 37° C., triplicate
MRSA USF655 = assay: Kirby-Bauer agar disk diffusion; settings: 20 μg on 6 mm disk, 24 h at 37° C., triplicate
MRSA USF652 = assay: Kirby-Bauer agar disk diffusion; settings: 20 μg on 6 mm disk, 24 h at 37° C., triplicate
MRSA USF653 = assay: Kirby-Bauer agar disk diffusion; settings: 20 μg on 6 mm disk, 24 h at 37° C., triplicate
[1] = tested on: S. aureus 849 (ATCC 25923); assay: Kirby-Bauer agar disk diffusion; settings: for zone of growth inhibition, average diameter: S. aureus 849 (ATCC 25923), 20 μg on 6 mm disk, 24 h at 37° C., triplicate; for S. aureus (Inhibition), median zone of inhibition: S. Aureaus strain 849, c = partial inhibition within this diameter
MRSA USF659 = assay: Kirby-Bauer agar disk diffusion; settings: 20 μg on 6 mm disk, 24 h at 37° C., triplicate
MRSA USF654 = assay: Kirby-Bauer agar disk diffusion; settings: 20 μg on 6 mm disk, 24 h at 37° C., triplicate
MRSA USF919 (ATCC 43300) = assay: Kirby-Bauer agar disk diffusion; settings: 20 μg on 6 mm disk, 24 h at 37° C., triplicate
MRSA USF920 (ATCC 33591) = assay: Kirby-Bauer agar disk diffusion; settings: 20 μg on 6 mm disk, 24 h at 37° C., triplicate
B. globigii = assay: Kirby-Bauer agar disk diffusion; format: cell-based; settings: 20 μg on 6 mm disk, 24 h at 37° C., triplicate
B. megaterium = assay: Kirby-Bauer agar disk diffusion; format: cell-based; settings: 20 μg on 6 mm disk, 24 h at 37° C., triplicate
B. subtilus = assay: Kirby-Bauer agar disk diffusion; format: cell-based; settings: 20 μg on 6 mm disk, 24 h at 37° C., triplicate
B. thurigensis = assay: Kirby-Bauer agar disk diffusion; format: cell-based; settings: 20 μg on 6 mm disk, 24 h at 37° C., triplicate
[2] = tested on: Bacillus anthracis (Sterne strain); format: cell-based; settings: B. anthracis (Sterne strain); 20 μg on 6 mm disk; 24 h at 37° C.; triplicate
B. coagulans = assay: Kirby-Bauer agar disk diffusion; format: cell-based; settings: 20 μg on 6 mm disk, 24 h at 37° C., triplicate
B. cereus = assay: Kirby-Bauer agar disk diffusion; format: cell-based; settings: 20 μg on 6 mm disk, 24 h at 37° C., triplicate
MRSA = assay: Broth MIC; format: cell-based, Staphylococcus aureus
S. aureus = assay: Broth MIC; format: cell-based, Staphylococcus aureus
[3] = tested on: 10 strains of MRSA (652-659, 919-920); assay: Kirby-Bauer zones of inhibition, 10 strains of MRSA; settings: for MRSA (inhibition), median diameter of zone of inhibition: median of 10 strains of MRSA (652-659, 919-920), c = partial inhibition within this diameter

| SMILES | zone of growth inhibition, average diameter (MRSA USF657) | zone of growth inhibition, average diameter (MRSA USF656) | zone of growth inhibition, average diameter (MRSA USF658) | zone of growth inhibition, average diameter (MRSA USF655) | zone of growth inhibition, average diameter (MRSA USF652) | zone of growth inhibition, average diameter (MRSA USF653) | zone of growth inhibition, average diameter [1] | zone of growth inhibition, average diameter (MRSA USF659) | zone of growth inhibition, average diameter (MRSA USF654) | zone of growth inhibition, average diameter (MRSA USF919 (ATCC 43300)) | zone of growth inhibition, average diameter (MRSA USF920 (ATCC 33591)) | zone of growth inhibition, average diameter (B. globigii) | zone of growth inhibition, average diameter (B. megaterium) | zone of growth inhibition, average diameter (B. subtilus) | zone of growth inhibition, average diameter (B. thurigensis) | zone of growth inhibition, average diameter [2] | zone of growth inhibition, average diameter (B. coagulans) | zone of growth inhibition, average diameter (B. cereus) | S. aureus (Inhibition), median zone of inhibition [1] | MRSA (inhibition), median diameter of zone of inhibition [3] | further results |
| --- | --- | --- | --- | --- | --- | --- | --- | --- | --- | --- | --- | --- | --- | --- | --- | --- | --- | --- | --- | --- | --- |
| COC1C(=O)N(SC)C1c1ccccc1 (racemic) [Lac, reference compound] | 27 mm | 28 mm | 26 mm | 25 mm | 30 mm | 30 mm | 25 mm | 24 mm | 26 mm | – | – | – | – | – | – | – | – | – | – | – | – |
| CC1(C)S[C@@H]2[C@H](NC(=O)Cc3ccccc3)C(=O)N2[C@H]1C(=O)O [Pen G, penicillin G, reference compound] | 12 mm | 12 mm | 19 mm | 14 mm | 8 mm | 15 mm | 33 mm | 16 mm | 10 mm | – | – | – | – | – | – | – | – | – | – | – | – |
| CCC(C)SN1CC(CCl)OC1=O (stereo not drawn) [compound 5] | 22 mm | 20 mm | 21 mm | 22 mm | 19 mm | 20 mm | 19 mm | 20 mm | 22 mm | 19 mm | 19 mm | – | – | – | – | – | – | – | – | – | – |
| CSN1C(=O)OC[C@@H]1c1ccccc1 [compound 6] | 29 mm | 31 mm | 29 mm | 29 mm | 30 mm | 31 mm | 30 mm | 26 mm | 29 mm | 30 mm | 28 mm | 15 mm | 18 mm | 19 mm | 17 mm | 23 mm | 17 mm | 24 mm | – | – | – |
| CSN1C(=O)OC[C@H]1c1ccccc1 [compound 7] | 27 mm | 28 mm | 27 mm | 28 mm | 30 mm | 30 mm | 29 mm | 26 mm | 26 mm | 28 mm | 28 mm | 17 mm | 20 mm | 19 mm | 15 mm | 23 mm | 17 mm | 23 mm | – | – | broth MIC value (MRSA): 8 µg/mL; broth MIC value (S. aureus): 8 µg/mL |
| CSN1C(=O)OC[C@@H]1C(C)C [compound 8] | 22 mm | 22 mm | 16 mm | 22 mm | 19 mm | 27 mm | 20 mm | 22 mm | 23 mm | 21 mm | 18 mm | 15 mm | 18 mm | 17 mm | 16 mm | 23 mm | 17 mm | 22 mm | – | – | broth MIC value (MRSA): 16 µg/mL; broth MIC value (S. aureus): 16 µg/mL |
| CSN1C(=O)OC[C@H]1C(C)C [compound 9] | 19 mm | 20 mm | 19 mm | 18 mm | 12 mm | 25 mm | 21 mm | 22 mm | 20 mm | 13 mm | 15 mm | 17 mm | 10 mm | 19 mm | 0 mm | 15 mm | 0 mm | 15 mm | – | – | clarity of growth inhibition zones ([3]; Kirby-Bauer, anti-MRSA, compared with S-stereoisomer 8): incomplete growth inhibition |
| CSN1C(=O)OC[C@@H]1c1ccccc1 [oxazolidinone 6, 4S-(+)-N-methylthio-4-phenyl-2-oxazolidinone] | – | – | – | – | – | – | – | – | – | – | – | – | – | – | – | – | – | – | 30 mm | 29 mm | – |
| CSN1C(=O)OC[C@H]1c1ccccc1 [oxazolidinone 7, 4R-(−)-N-methylthio-4-phenyl-2-oxazolidinone] | – | – | – | – | – | – | – | – | – | – | – | – | – | – | – | – | – | – | 29 mm | 28 mm | – |
| CSN1C(=O)OC[C@@H]1C(C)C [oxazolidinone 8] | – | – | – | – | – | – | – | – | – | – | – | – | – | – | – | – | – | – | 20^c mm | 16^c mm | – |
| CSN1C(=O)OC[C@H]1C(C)C [oxazolidinone 9, 4R-(+)-N-methylthio-4-isopropyl-2-oxazolidinone] | – | – | – | – | – | – | – | – | – | – | – | – | – | – | – | – | – | – | 21^c mm | 19^c mm | – |

Reference: US8703963B2, “Derivative N-thiolated 2-oxazolidinone antibiotics” (University of South Florida, priority 2005, dated 2014)
